In ChEMBL document CHEMBL4043236, “Design and synthesis of novel PRMT1 inhibitors and investigation of their binding preferences using molecular modelling” (Bioorg Med Chem Lett, 2017):

Columns and labels:
[1] = test system: HepG2; assay: Cytotoxicity against human HepG2 cells assessed as reduction in cell viability after 72 hrs by CellTiter-blue assay; assay type: functional, cell-based; details: HepG2, 72 h
[2] = test system: Daoy; assay: Cytotoxicity against human DaOY cells assessed as reduction in cell viability after 72 hrs by CellTiter-blue assay; assay type: functional, cell-based
[3] = target: T1, Protein arginine N-methyltransferase 1 (Homo sapiens, UniProt Q99873); assay: (§1) Inhibition of recombinant human N-terminal GST-tagged PRMT1 (2 to end residues) expressed in baculovirus infected Sf9 insect cells using biotinylated histone H4 peptide as substrate preincubated for 15 mins followed by substrate/[3H]-SAM addition measured after 60 mins by microbeta liquid scintillation counting analysis
Target sequence in this assay (Q99873 whole entry): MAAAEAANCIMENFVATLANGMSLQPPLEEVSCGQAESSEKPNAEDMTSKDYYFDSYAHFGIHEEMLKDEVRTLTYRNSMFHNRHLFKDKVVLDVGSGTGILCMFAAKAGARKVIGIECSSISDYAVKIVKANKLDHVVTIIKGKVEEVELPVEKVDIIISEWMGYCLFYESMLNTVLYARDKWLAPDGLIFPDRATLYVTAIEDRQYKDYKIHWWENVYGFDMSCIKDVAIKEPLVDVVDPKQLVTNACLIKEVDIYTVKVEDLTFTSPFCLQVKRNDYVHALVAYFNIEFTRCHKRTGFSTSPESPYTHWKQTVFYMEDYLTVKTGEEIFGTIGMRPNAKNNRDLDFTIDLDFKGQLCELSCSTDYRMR

[4] = test system: MCF7; assay: Cytotoxicity against human MCF7 cells assessed as reduction in cell viability after 72 hrs by CellTiter-blue assay; assay type: functional, cell-based; details: MCF7, 72 h
[5] = target: T1, Protein arginine N-methyltransferase 1; assay: as §1, with “cells at 9 uM” for “cells”
Target sequence in this assay (Q99873 whole entry, looked up): as the sequence (Q99873 whole entry) above

[6] = target: T1, Protein arginine N-methyltransferase 1; assay: Potency index, ratio of AMI-1 IC50 to compound IC50 for recombinant human N-terminal GST-tagged PRMT1 (2 to end residues) expressed in baculovirus infected Sf9 insect cells
Target sequence in this assay (Q99873 whole entry, looked up): as the sequence (Q99873 whole entry) above

inhibition [5] | Structure (SMILES) | also measured
40% | CNCCN(C)Cc1ccc(-c2ccc(OC(F)(F)F)cc2)o1 | IC50 [1]: 24.2 µM; IC50 [2]: 24.3 µM; IC50 [3]: 17 µM; IC50 [4]: 30.6 µM
46% | CN(CCN)Cc1ccc(-c2cccc(OC(F)(F)F)c2)o1 | IC50 [1]: > 100 µM; IC50 [2]: > 100 µM; IC50 [3]: 14 µM; IC50 [4]: > 100 µM
38% | CN(CCN)Cc1ccc(-c2cccc(C#N)c2)o1 | –
41% | CNCCN(C)Cc1ccc(-c2cccc(OC(F)(F)F)c2)o1 | IC50 [1]: 23 µM; IC50 [2]: 23.6 µM; IC50 [3]: 14 µM; IC50 [4]: 64.4 µM
37% | CN(CCN)Cc1ccc(-c2ccc(C(F)(F)F)cc2)o1 | –
24% | COc1cccc(-c2ccc(CN(C)CCN)o2)c1 | –
32% | CNCCN(C)Cc1ccc(-c2ccc(C(=O)OC)cc2)o1 | –
30% | COC(=O)c1ccc(-c2ccc(CN(C)CCN)o2)cc1 | –
31% | CN(CCN)Cc1ccc(-c2cccc(C(F)(F)F)c2)o1 | –
25% | CN(CCN)Cc1ccc(-c2ccc(OC(F)(F)F)cc2)o1 | –
43% | CNCCN(C)Cc1ccc(-c2ccc(C(F)(F)F)cc2)o1 | IC50 [1]: 36.4 µM; IC50 [2]: 72.8 µM; IC50 [3]: 8.2 µM; Ratio IC50 [6]: 3; IC50 [4]: 49.8 µM
25% | COc1ccc(-c2ccc(CN(C)CCN)o2)cc1 | –
38% | COC(=O)c1cccc(-c2ccc(CN(C)CCN)o2)c1 | –
43% | CNCCN(C)Cc1ccc(-c2cccc(C(F)(F)F)c2)o1 | IC50 [1]: 34.5 µM; IC50 [2]: 69.8 µM; IC50 [3]: 14 µM; IC50 [4]: 61.1 µM
38% | CNCCN(C)Cc1ccc(-c2ccc(OC)cc2)o1 | –

Further lines, the molecule ahead of its results:

Structure (SMILES) | inhibition [5] | also measured
CNCCN(C)c1nnnn1Cc1ccc(C(F)(F)F)cc1 | 2% | –
CNCCN(C)c1nnnn1Cc1cccc(OC(F)(F)F)c1 | 12% | –
CNCCN(C)c1nnnn1Cc1ccccc1OC(F)(F)F | 9% | –
CNCCN(C)c1nnnn1Cc1ccccc1C(F)(F)F | 13% | –
CNCCN(C)c1nnnn1Cc1ccc(OC(F)(F)F)cc1 | 5% | –
CNCCN(C)c1nnnn1Cc1ccc(OC)cc1 | 0% | –
CNCCN(C)c1nnnn1Cc1ccc(C#N)cc1 | 6% | –
FC(F)(F)c1cccc(Cn2nnnc2N2CCNCC2)c1 | 1% | –
CNCCN(C)Cc1ccc(-c2ccc(C#N)cc2)o1 | 35% | –
CNCCN(C)Cc1ccc(-c2cccc(C#N)c2)o1 | 33% | –
Nc1ncnc2c1ncn2[C@@H]1O[C@H](CSCC[C@H](N)C(=O)O)[C@@H](O)[C@H]1O | 90% | –
CNCCN(C)Cc1ccc(-c2cccc(C(=O)OC)c2)o1 | 51% | IC50 [1]: 74.1 µM; IC50 [2]: 71.2 µM; IC50 [3]: 14 µM; IC50 [4]: > 100 µM
O=C(Nc1ccc2c(O)cc(S(=O)(=O)O)cc2c1)Nc1ccc2c(O)cc(S(=O)(=O)O)cc2c1 | – | IC50 [1]: 51.2 µM; IC50 [2]: > 100 µM; IC50 [4]: > 100 µM
CNCCN(C)c1nnnn1Cc1cccc(C(F)(F)F)c1 | 8% | –
CNCCN(C)Cc1ccc(-c2cccc(OC)c2)o1 | 37% | –
